Measured values taken from publication PMC9099118 (Clinical and Translational Science, 2022).

Key:
[1] = Phase I safety: adverse events, Part A; format: in vivo, human; settings: for Related AE / Total number of participants with at least one AE / Upper respiratory tract infection / Cough / Headache: n (%)
[2] = Scintigraphy study: plasma PK and safety; format: in vivo, human; settings: single 1 mg radiolabeled dose
JAK1 = settings: cited from earlier work
[3] = Part B MAD, 15 mg b.i.d. (n = 6)

In the case of `CN(CCC#N)C1CCN(C(=O)Cn2cc(NC(=O)c3cnn4cccnc34)c(-c3cc(Cl)ccc3OC(F)F)n2)CC1` [GDC‐0214], the “AE leading to withdrawal from treatment” value ([1]; Part A SAD, 0.15 mg (n = 3)) was 0, the “Serious AE” value ([1]; Part A SAD, 0.15 mg (n = 3)) was 0 and the “Total number of AEs” value ([1]; Part A SAD, 0.15 mg (n = 3)) was 1. For the same compound, the “Total number of deaths” value ([1]; Part A SAD, 0.15 mg (n = 3)) was 0, the “Total number of participants withdrawn from study due to an AE” value (from here on “Total number of participants withdrawn”) ([1]; Part A SAD, 0.15 mg (n = 3)) was 0 and the “Related AE” value ([1]; Part A SAD, 0.15 mg (n = 3)) was 0. For the same compound, the “Total number of participants with at least one AE” value (“Total number … at least one AE” for short) ([1]; Part A SAD, 0.15 mg (n = 3)) was 1 (33.3%), the “Upper respiratory tract infection” value ([1]; Part A SAD, 0.15 mg (n = 3)) was 0 and the “AE leading to withdrawal from treatment” value ([1]; Part A SAD, 0.5 mg (n = 3)) was 0. The “Serious AE” value ([1]; Part A SAD, 0.5 mg (n = 3)) was 0, the “Total number of AEs” value ([1]; Part A SAD, 0.5 mg (n = 3)) was 3 and the “Total number of deaths” value ([1]; Part A SAD, 0.5 mg (n = 3)) was 0. The “Total number of participants withdrawn” value ([1]; Part A SAD, 0.5 mg (n = 3)) was 0, the “Related AE” value ([1]; Part A SAD, 0.5 mg (n = 3)) was 0 and the “Total number … at least one AE” value ([1]; Part A SAD, 0.5 mg (n = 3)) was 2 (66.7%). For the same compound, the “Upper respiratory tract infection” value ([1]; Part A SAD, 0.5 mg (n = 3)) was 0, the “AE leading to withdrawal from treatment” value ([1]; Part A SAD, 1.5 mg (n = 6)) was 0 and the “Serious AE” value ([1]; Part A SAD, 1.5 mg (n = 6)) was 0. For the same compound, the “Total number of AEs” value ([1]; Part A SAD, 1.5 mg (n = 6)) was 5, the “Total number of deaths” value ([1]; Part A SAD, 1.5 mg (n = 6)) was 0 and the “Total number of participants withdrawn” value ([1]; Part A SAD, 1.5 mg (n = 6)) was 0. The “Related AE” value ([1]; Part A SAD, 1.5 mg (n = 6)) was 1 (16.7%), the “Total number … at least one AE” value ([1]; Part A SAD, 1.5 mg (n = 6)) was 3 (50.0%) and the “AE leading to withdrawal from treatment” value ([1]; Part A SAD, 5 mg (n = 6)) was 0. The “Serious AE” value ([1]; Part A SAD, 5 mg (n = 6)) was 0, the “Total number of AEs” value ([1]; Part A SAD, 5 mg (n = 6)) was 2 and the “Total number of deaths” value ([1]; Part A SAD, 5 mg (n = 6)) was 0. The “Total number of participants withdrawn” value ([1]; Part A SAD, 5 mg (n = 6)) was 0, the “Related AE” value ([1]; Part A SAD, 5 mg (n = 6)) was 0 and the “Total number … at least one AE” value ([1]; Part A SAD, 5 mg (n = 6)) was 2 (33.3%). For the same compound, the “Upper respiratory tract infection” value ([1]; Part A SAD, 5 mg (n = 6)) was 0, the “AE leading to withdrawal from treatment” value ([1]; Part A SAD, 15 mg (n = 6)) was 0 and the “Serious AE” value ([1]; Part A SAD, 15 mg (n = 6)) was 0. For the same compound, the “Total number of AEs” value ([1]; Part A SAD, 15 mg (n = 6)) was 4, the “Total number of deaths” value ([1]; Part A SAD, 15 mg (n = 6)) was 0 and the “Total number of participants withdrawn” value ([1]; Part A SAD, 15 mg (n = 6)) was 0. For the same compound, the “Related AE” value ([1]; Part A SAD, 15 mg (n = 6)) was 1 (16.7%), the “Total number … at least one AE” value ([1]; Part A SAD, 15 mg (n = 6)) was 4 (66.7%) and the “Upper respiratory tract infection” value ([1]; Part A SAD, 15 mg (n = 6)) was 0. The “Total number … at least one AE” value ([1]; Part B MAD, 1 mg q.d. 14 days (n = 6)) was 6 (100%), the “AE leading to withdrawal from treatment” value ([1]; Part B MAD, 1 mg q.d. (n = 6)) was 0 and the “Related serious AE” value ([1]; Part B MAD, 1 mg q.d. (n = 6)) was 0. The “Serious AE” value ([1]; Part B MAD, 1 mg q.d. (n = 6)) was 0, the “Total number of AEs” value ([1]; Part B MAD, 1 mg q.d. (n = 6)) was 6 and the “Total number of deaths” value ([1]; Part B MAD, 1 mg q.d. (n = 6)) was 0. For the same compound, the “Total number of participants withdrawn” value ([1]; Part B MAD, 1 mg q.d. (n = 6)) was 0, the Cough ([1]; Part B MAD, 1 mg q.d. (n = 6)) was 0 and the Headache ([1]; Part B MAD, 1 mg q.d. (n = 6)) was 1 (16.7%). For the same compound, the “Related AE” value ([1]; Part B MAD, 1 mg q.d. (n = 6)) was 0, the “Upper respiratory tract infection” value ([1]; Part B MAD, 1 mg q.d. (n = 6)) was 2 (33.3%) and the “Total number … at least one AE” value ([1]; Part B MAD, 3 mg q.d. 14 days (n = 6)) was 4 (66.7%). The “AE leading to withdrawal from treatment” value ([1]; Part B MAD, 3 mg q.d. (n = 6)) was 0, the “Related serious AE” value ([1]; Part B MAD, 3 mg q.d. (n = 6)) was 0 and the “Serious AE” value ([1]; Part B MAD, 3 mg q.d. (n = 6)) was 0. The “Total number of AEs” value ([1]; Part B MAD, 3 mg q.d. (n = 6)) was 11, the “Total number of deaths” value ([1]; Part B MAD, 3 mg q.d. (n = 6)) was 0 and the “Total number of participants withdrawn” value ([1]; Part B MAD, 3 mg q.d. (n = 6)) was 0. For the same compound, the Cough ([1]; Part B MAD, 3 mg q.d. (n = 6)) was 1 (16.7%), the Headache ([1]; Part B MAD, 3 mg q.d. (n = 6)) was 2 (33.3%) and the “Related AE” value ([1]; Part B MAD, 3 mg q.d. (n = 6)) was 1 (16.7%). The “Upper respiratory tract infection” value ([1]; Part B MAD, 3 mg q.d. (n = 6)) was 3 (50.0%), the “Total number … at least one AE” value ([1]; Part B MAD, 10 mg q.d. 14 days (n = 6)) was 6 (100%) and the “AE leading to withdrawal from treatment” value ([1]; Part B MAD, 10 mg q.d. (n = 6)) was 0. The “Related serious AE” value ([1]; Part B MAD, 10 mg q.d. (n = 6)) was 0, the “Serious AE” value ([1]; Part B MAD, 10 mg q.d. (n = 6)) was 0 and the “Total number of AEs” value ([1]; Part B MAD, 10 mg q.d. (n = 6)) was 13. For the same compound, the “Total number of deaths” value ([1]; Part B MAD, 10 mg q.d. (n = 6)) was 0, the “Total number of participants withdrawn” value ([1]; Part B MAD, 10 mg q.d. (n = 6)) was 0 and the Cough ([1]; Part B MAD, 10 mg q.d. (n = 6)) was 0. For the same compound, the Headache ([1]; Part B MAD, 10 mg q.d. (n = 6)) was 0, the “Related AE” value ([1]; Part B MAD, 10 mg q.d. (n = 6)) was 0 and the “Upper respiratory tract infection” value ([1]; Part B MAD, 10 mg q.d. (n = 6)) was 2 (33.3%). For the same compound, the “Total number … at least one AE” value ([1]; Part B MAD, 15 mg b.i.d. 14 days (n = 6)) was 4 (66.7%), the “AE leading to withdrawal from treatment” value [1, 3] was 0 and the “Related serious AE” value [1, 3] was 0. The “Serious AE” value [1, 3] was 0, the “Total number of AEs” value [1, 3] was 8 and the “Total number of deaths” value [1, 3] was 0. For the same compound, the “Total number of participants withdrawn” value [1, 3] was 0, the Cough [1, 3] was 0 and the Headache [1, 3] was 2 (33.3%). For the same compound, the “Related AE” value [1, 3] was 0, the “Upper respiratory tract infection” value [1, 3] was 0 and the “severity of adverse events” value ([1]; after single and multiple doses, all adverse events) was “mild or moderate”. For the same compound, the safety and tolerability ([1]; up to a single dose of 15 mg or multiple doses up to 15 mg b.i.d. for 14 days) was “safe and well tolerated”, the tolerability [2] was “well tolerated” and the “plasma protein binding-corrected cellular 50% inhibitory concentration of JAK1” value (JAK1) was 97,000 pg/mL.
